Data on 8 compounds can be found in patent US20020165286A1, “Dermal anti-inflammatory composition” (priority 2000, published 2002).

For series [1] the following is noted: cited from earlier work.
The conditions of series [2]: cited from earlier work. The source holds these as a separate data set.
The conditions of series [3]: cited from earlier work. The source holds these as a separate data set.
The conditions of series [4]: cited from earlier work. The source holds these as a separate data set.
The conditions of series [5]: cited from earlier work. The source holds these as a separate data set.
The subject of a further series is rhino mouse. The experiment in a line: Rhino mouse study: comedolytic activity (number of utriculi, epidermal thickness). Type of series: in vivo, rhino mice (RHJ/LeJ Rhino, hr^rh/hr^rh). Particulars: test substance dissolved in ethanol only. An excerpt:
The rhino mouse is an in vivo model for the study of hyperplastic and comedolytic potency of various drugs used in the treatment of acne. The rhino mouse has follicles on the skin. The orifices are distended with horny material and these structures resembles human microcomedones and are referred to as utriculi or pseudocomedones.
In the present study, the comedolytic activity and skin irritation potential of 3% w/v solutions of test substance (1) in different vehicles was studied in order to select a formulation suited for topical application. Selected commercial acne products were included in the study for the purpose of comparison.
105 female rhino mice (RHJ/LeJ Rhino, hr^rh/hr^rh) aged 6-9 weeks were obtained from M&B A/S, Denmark. The mice were placed in cages with free access to a commercial rodent diet (Altromin 1324) and tap water. […]
The mice were killed one day after the end of the treatment period and the dorsal skin was removed. […] These slices were evaluated under the microscope (Nikon LABOPHOT-2) for the number of epidermal utriculi and utriculi profile (×200) and the epidermal thickness (×400), and the mean value and standard deviation for each animal was estimated. […]

Molecules are shown by their SMILES. Read-outs that look alike come from different tables or passages of the source.

With `O=C(O)CCCCCCCC(=O)O` [Azelaic acid], in series [1] (topical administration), the Potential irritant result is listed as “Yes”. Besides, in series [2] (topical administration), the Teratogenic result was “No”. Moreover, the Antibacterial entry in series [3] (topical administration) was “Yes”. For the same compound, the Anti-inflam. result in series [4] (topical administration) is given as “Maybe”. The Comedolytic result in series [5] (topical administration) is listed as “Yes”.
Take `O=C(OOC(=O)c1ccccc1)c1ccccc1` [Benzoyl peroxide]: the Potential irritant result in series [1] (topical administration) is listed as “Yes”. In series [3] (topical administration), the Antibacterial result is listed as “Yes”. Moreover, the Anti-inflam. entry in series [4] (topical administration) is “Maybe”. Further, the Comedolytic entry in series [5] (topical administration) is recorded as “Somewhat”.
Turning to `C[C@H]1c2cccc(O)c2C(O)=C2C(=O)[C@]3(O)C(O)=C(C(N)=O)C(=O)[C@@H](N(C)C)[C@@H]3[C@@H](O)[C@@H]21` [Doxycyclin], the Potential irritant result in series [1] (systemic administration) is given as “No”. Besides, in series [2] (systemic administration), the Teratogenic result was “Yes”. In series [3] (systemic administration), the Antibacterial entry is on record as “Yes”. The Anti-inflam. entry in series [4] (systemic administration) was “Yes”. Further, the Comedolytic result in series [5] (systemic administration) is given as “No”.
Regarding `CC1=C(/C=C/C(C)=C/C=C/C(C)=C\C(=O)O)C(C)(C)CCC1` [Isotretinoin], the Potential irritant entry in series [1] (systemic administration) was “Yes”. Moreover, the Teratogenic result in series [2] (systemic administration) is “Yes”. The Antibacterial result in series [3] (systemic administration) is reported as “Yes”. The Anti-inflam. entry in series [4] (systemic administration) is listed as “Yes”. For the same compound, in series [5] (systemic administration), the Comedolytic result is listed as “Yes”.
Regarding `CN(C)c1ccc(O)c2c1C[C@H]1C[C@H]3[C@H](N(C)C)C(O)=C(C(N)=O)C(=O)[C@@]3(O)C(O)=C1C2=O` [Minocyclin], the Teratogenic entry in series [2] (systemic administration) is “Yes”. The Antibacterial result in series [3] (systemic administration) is “Yes”. The Anti-inflam. result in series [4] (systemic administration) is listed as “Yes”. Moreover, in series [5] (systemic administration), the Comedolytic result is “No”.
As to `CN(C)[C@@H]1C(=O)C(C(N)=O)=C(O)[C@@]2(O)C(=O)C3=C(O)c4c(O)cccc4[C@@](C)(O)[C@H]3C[C@@H]12` [Tetracyclin], the Potential irritant result in series [1] (systemic administration) is “No”. The Teratogenic entry in series [2] (systemic administration) is “Yes”. In series [3] (systemic administration), the Antibacterial result is “Yes”. Also, the Anti-inflam. result in series [4] (systemic administration) is reported as “Yes”. The Comedolytic entry in series [5] (systemic administration) is recorded as “No”.
Take `CC1=C(/C=C/C(C)=C/C=C/C(C)=C/C(=O)O)C(C)(C)CCC1` [Tretinoin]: in series [1] (topical administration), the Potential irritant result was “Yes”. The Teratogenic entry in series [2] (topical administration) was “Maybe”. Further, the Antibacterial result in series [3] (topical administration) was “No”. The Anti-inflam. result in series [4] (topical administration) is “No”. Also, the Comedolytic result in series [5] (topical administration) is on record as “Yes”.
As for `Cc1cc(F)ccc1Nc1ccc(C(=O)c2ccccc2C)c(Cl)c1` [test substance (1), 2-chloro-4-(4-fluoro-2-methyl-phenylamino)-2′-methylbenzophenone], in the series with rhino mouse, the “reduction in the number of utriculi” value is given as 51%.
